Activity calls are given as the source filed them. The rule behind the calls is not given here. Where a SMILES comes first, the peptide text is derived from it. Bridges are numbered along the chain shown (N, C = ends).
Assays:
[1] = target: von Willebrand factor (Homo sapiens) (UniProt P04275); assay: Inhibition of GPIbalpha-vWF binding assessed as inhibition of ristocetin-induced platelet agglutination at 100 uM after 2 mins by static agglutination assay
[2] = target: von Willebrand factor (Homo sapiens) (UniProt P04275); assay: Inhibition of GPIbalpha-vWF binding assessed as constant shear stress at 120 dynes/cm'2-induced platelet agglutination at 10 uM preincubated for 5 mins by cone and plate rheometer analysis relative to control using male platelet rich plasma (reference value: 100%); parameters: scale not given: the % may be the effect or the level left
[3] = target: von Willebrand factor (Homo sapiens) (UniProt P04275); assay: Inhibition of GPIbalpha-human vWF binding assessed as platelet rolling velocity at 100 uM preincubated for 5 mins by parallel plate flow assay with real time imaging microscopy (reference value: 7.1 um/sec)
[4] = target: von Willebrand factor (Homo sapiens) (UniProt P04275); assay: Inhibition of GPIbalpha-vWF binding assessed as ristocetin-induced platelet agglutination at 10 uM after 2 mins by static agglutination assay using platelet rich plasma (reference value: 76.3%); parameters: scale not given: the % may be the effect or the level left
[5] = target: von Willebrand factor (Homo sapiens) (UniProt P04275); assay: Inhibition of GPIbalpha-vWF binding assessed as ristocetin-induced platelet agglutination at 10 uM after 2 mins by static agglutination assay using washed platelets (reference value: 66.5%); parameters: scale not given: the % may be the effect or the level left
[6] = target: von Willebrand factor (Homo sapiens) (UniProt P04275); assay: Inhibition of GPIbalpha-vWF binding assessed as ristocetin-induced platelet agglutination at 100 uM after 2 mins by static agglutination assay using washed platelets (reference value: 66.5%); parameters: scale not given: the % may be the effect or the level left
[7] = target: von Willebrand factor (Homo sapiens) (UniProt P04275); assay: Inhibition of GPIbalpha-vWF binding assessed as ristocetin-induced platelet agglutination at 100 uM after 2 mins by static agglutination assay using platelet rich plasma (reference value: 76.3%); parameters: scale not given: the % may be the effect or the level left
[8] = target: von Willebrand factor (Homo sapiens) (UniProt P04275); assay: Inhibition of GPIbalpha-vWF binding assessed as constant shear stress at 120 dynes/cm'2-induced platelet agglutination at 10 uM preincubated for 5 mins by cone and plate rheometer analysis relative to control using female platelet rich plasma (reference value: 100%); parameters: scale not given: the % may be the effect or the level left
[9] = target: von Willebrand factor (Homo sapiens) (UniProt P04275); assay: Inhibition of GPIbalpha-vWF binding assessed as ristocetin-induced platelet agglutination at 100 uM after 2 mins by static agglutination assay using washed platelets from female (reference value: 61.7%); parameters: scale not given: the % may be the effect or the level left
[10] = target: von Willebrand factor (Homo sapiens) (UniProt P04275); assay: Inhibition of GPIbalpha-vWF binding assessed as inhibition of ristocetin-induced platelet agglutination at 100 uM after 2 mins by static agglutination assay using washed platelets from female
[11] = target: von Willebrand factor (Homo sapiens) (UniProt P04275); assay: Inhibition of GPIbalpha-vWF binding assessed as ristocetin-induced platelet agglutination at 1 uM after 2 mins by static agglutination assay using platelet rich plasma (reference value: 76.3%); parameters: scale not given: the % may be the effect or the level left
[12] = target: von Willebrand factor (Homo sapiens) (UniProt P04275); assay: Inhibition of GPIbalpha-vWF binding assessed as inhibition of ristocetin-induced platelet agglutination at 100 uM after 2 mins by static agglutination assay using washed platelets from male
[13] = target: von Willebrand factor (Homo sapiens) (UniProt P04275); assay: Inhibition of GPIbalpha-vWF binding assessed as ristocetin-induced platelet agglutination at 100 uM after 2 mins by static agglutination assay using washed platelets from male (reference value: 58%); parameters: scale not given: the % may be the effect or the level left
[14] = target: von Willebrand factor (Homo sapiens) (UniProt P04275); assay: Inhibition of GPIbalpha-vWF binding assessed as ristocetin-induced platelet agglutination at 1 uM after 2 mins by static agglutination assay using washed platelets (reference value: 66.5%); parameters: scale not given: the % may be the effect or the level left
[15] = target: von Willebrand factor (Homo sapiens) (UniProt P04275); assay: Inhibition of GPIbalpha-human vWF binding assessed as decrease in arterial shear-induced platelet adhesion to vWF measuring number of platelets adhered after flow at 100 uM preincubated for 5 mins by parallel plate flow assay with real time imaging microscopy
[16] = target: von Willebrand factor (Homo sapiens) (UniProt P04275); assay: Inhibition of GPIbalpha-human vWF binding assessed as decrease in arterial shear-induced platelet adhesion to vWF measuring number of platelets adhered during flow at 100 uM preincubated for 5 mins by parallel plate flow assay with real time imaging microscopy

Sequence of von Willebrand factor (Homo sapiens) (P04275 whole entry): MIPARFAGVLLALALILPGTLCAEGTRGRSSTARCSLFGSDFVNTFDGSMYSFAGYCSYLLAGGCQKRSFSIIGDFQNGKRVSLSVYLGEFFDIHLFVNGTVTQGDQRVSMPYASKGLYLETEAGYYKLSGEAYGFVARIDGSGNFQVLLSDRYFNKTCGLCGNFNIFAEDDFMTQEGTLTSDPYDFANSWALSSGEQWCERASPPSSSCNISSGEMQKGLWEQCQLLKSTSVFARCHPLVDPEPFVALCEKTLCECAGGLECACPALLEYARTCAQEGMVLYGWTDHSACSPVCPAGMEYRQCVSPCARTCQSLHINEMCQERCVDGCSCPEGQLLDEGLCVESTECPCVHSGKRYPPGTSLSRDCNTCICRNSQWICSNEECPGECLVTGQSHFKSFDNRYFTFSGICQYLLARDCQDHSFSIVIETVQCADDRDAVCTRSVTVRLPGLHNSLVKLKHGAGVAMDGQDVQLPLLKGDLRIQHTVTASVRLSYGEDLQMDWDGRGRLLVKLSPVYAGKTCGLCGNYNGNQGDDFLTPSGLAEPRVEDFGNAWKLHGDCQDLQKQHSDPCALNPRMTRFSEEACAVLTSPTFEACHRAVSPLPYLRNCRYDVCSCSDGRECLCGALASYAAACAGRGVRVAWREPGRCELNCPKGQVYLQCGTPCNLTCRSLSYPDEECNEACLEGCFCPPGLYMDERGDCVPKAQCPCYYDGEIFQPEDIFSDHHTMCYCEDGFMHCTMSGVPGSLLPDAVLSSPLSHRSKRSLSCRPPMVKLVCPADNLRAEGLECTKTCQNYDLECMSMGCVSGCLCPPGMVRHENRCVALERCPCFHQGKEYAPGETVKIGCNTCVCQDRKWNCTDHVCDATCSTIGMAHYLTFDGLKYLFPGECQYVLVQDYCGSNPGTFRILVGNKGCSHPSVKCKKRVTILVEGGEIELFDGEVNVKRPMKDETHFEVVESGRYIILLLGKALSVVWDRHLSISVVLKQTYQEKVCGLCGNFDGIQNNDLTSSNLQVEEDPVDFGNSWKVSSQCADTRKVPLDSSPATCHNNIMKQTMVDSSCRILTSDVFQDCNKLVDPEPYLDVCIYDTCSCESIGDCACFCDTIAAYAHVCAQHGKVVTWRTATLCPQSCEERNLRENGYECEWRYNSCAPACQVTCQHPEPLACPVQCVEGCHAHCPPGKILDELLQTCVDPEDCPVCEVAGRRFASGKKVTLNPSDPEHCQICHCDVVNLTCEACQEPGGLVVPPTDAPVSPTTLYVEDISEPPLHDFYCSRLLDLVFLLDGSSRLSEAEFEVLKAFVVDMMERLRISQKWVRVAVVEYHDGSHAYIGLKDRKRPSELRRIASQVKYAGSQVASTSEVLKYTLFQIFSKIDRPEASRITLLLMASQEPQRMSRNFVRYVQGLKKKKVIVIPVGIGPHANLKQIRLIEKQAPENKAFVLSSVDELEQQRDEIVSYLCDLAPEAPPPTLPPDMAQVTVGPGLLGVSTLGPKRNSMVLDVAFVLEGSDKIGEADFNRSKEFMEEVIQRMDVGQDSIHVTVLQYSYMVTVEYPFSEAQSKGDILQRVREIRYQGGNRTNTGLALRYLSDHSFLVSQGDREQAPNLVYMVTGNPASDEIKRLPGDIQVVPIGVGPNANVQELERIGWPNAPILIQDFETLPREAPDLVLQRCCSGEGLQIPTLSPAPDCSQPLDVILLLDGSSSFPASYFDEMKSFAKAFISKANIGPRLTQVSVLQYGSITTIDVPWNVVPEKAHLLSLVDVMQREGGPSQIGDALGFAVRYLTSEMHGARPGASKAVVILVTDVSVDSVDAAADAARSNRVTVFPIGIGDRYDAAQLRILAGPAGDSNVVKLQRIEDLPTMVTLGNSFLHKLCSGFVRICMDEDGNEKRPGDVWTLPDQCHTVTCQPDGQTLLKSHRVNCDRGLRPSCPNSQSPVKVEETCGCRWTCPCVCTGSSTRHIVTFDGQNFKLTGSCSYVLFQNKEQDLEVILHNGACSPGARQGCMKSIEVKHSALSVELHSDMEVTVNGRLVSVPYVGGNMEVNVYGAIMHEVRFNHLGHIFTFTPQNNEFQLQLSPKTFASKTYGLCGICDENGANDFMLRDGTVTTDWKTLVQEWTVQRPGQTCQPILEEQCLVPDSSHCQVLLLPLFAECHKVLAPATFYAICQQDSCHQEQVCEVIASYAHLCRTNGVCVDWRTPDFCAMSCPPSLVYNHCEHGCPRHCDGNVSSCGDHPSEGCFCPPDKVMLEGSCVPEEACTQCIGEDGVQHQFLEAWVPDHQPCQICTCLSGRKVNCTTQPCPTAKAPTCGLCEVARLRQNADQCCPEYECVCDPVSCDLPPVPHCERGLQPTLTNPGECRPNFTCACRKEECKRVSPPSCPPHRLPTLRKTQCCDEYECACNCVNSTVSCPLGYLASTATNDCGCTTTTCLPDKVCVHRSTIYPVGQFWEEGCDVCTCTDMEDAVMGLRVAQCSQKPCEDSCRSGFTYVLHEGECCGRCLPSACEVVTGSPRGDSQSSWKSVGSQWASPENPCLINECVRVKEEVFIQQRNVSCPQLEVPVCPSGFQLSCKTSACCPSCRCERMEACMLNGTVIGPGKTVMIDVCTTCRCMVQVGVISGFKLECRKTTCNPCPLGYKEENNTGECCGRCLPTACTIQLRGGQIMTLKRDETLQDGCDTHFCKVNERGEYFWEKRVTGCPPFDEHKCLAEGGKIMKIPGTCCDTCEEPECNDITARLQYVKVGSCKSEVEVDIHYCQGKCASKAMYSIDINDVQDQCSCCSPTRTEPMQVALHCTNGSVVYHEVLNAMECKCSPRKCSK

Row | Compound | inhibition [1] [%] | Activity [3] [um/s] | Activity [9] [%] | Activity [13] [%] | also measured
1 | CC(C)C[C@@H]1NC(=O)[C@H](Cc2cnc[nH]2)NC(=O)[C@H](CO)NC(=O)[C@H](C)NC(=O)[C@H](C(C)C)NC(=O)[C@H](CCCCN)NC(=O)[C@H](CO)NC(=O)[C@H](C(C)C)NC(=O)[C@H](CCC(=O)O)NC(=O)[C@@H](N)CSSC[C@@H](C(=O)N[C@@H](CC(=O)O)C(=O)N[C@@H](CCCCN)C(N)=O)NC(=O)[C@H](CC(N)=O)NC(=O)[C@H](C(C)C)NC(=O)[C@H](CCC(=O)O)NC1=O (H-CEVSKVASHLEVNCDK-NH2; disulfide 1-14) | 7.1 | – | – | – | –
2 | CC(C)C[C@@H]1NC(=O)[C@H](Cc2cnc[nH]2)NC(=O)[C@H](CO)NC(=O)[C@H](C)NC(=O)[C@H](C(C)C)NC(=O)[C@H](CCCCN)NC(=O)[C@H](CO)NC(=O)[C@H](C(C)C)NC(=O)[C@H](CCC(=O)O)NC(=O)[C@H]2CCCN2C(=O)[C@@H]2CCCN2C(=O)[C@H](CC(N)=O)NC(=O)[C@H](C(C)C)NC(=O)[C@H](CCC(=O)O)NC1=O | 10.4 | – | – | – | –
3 | CC(C)[C@@H]1NC(=O)CNC(=O)[C@@H]2CSSC[C@H](NC(=O)[C@H](C(C)C)NC(=O)[C@H](CC(=O)O)NC1=O)C(=O)N[C@@H](C)C(=O)N[C@@H](C(C)C)C(=O)N1CCC[C@H]1C(=O)N1CCC[C@@H]1C(=O)N[C@@H](Cc1c[nH]c3ccccc13)C(=O)N[C@@H](CCCCN)C(=O)N2 | 43.9 | 8.1 | 50.7 | 32 | Activity [2]: 107%; Activity [4]: 57.3%; Activity [5]: 46%; Activity [6]: 37.3%; Activity [7]: 46.7%; Activity [8]: 122%; inhibition [10]: 17.8%; Activity [11]: 61.7%; inhibition [12]: 44.8%; Activity [14]: 57.5%
4 | CC(C)[C@H](NC(=O)CNC(=O)[C@@H]1CSSC[C@H](NC(=O)[C@@H](NC(=O)[C@@H](N)CC(=O)O)C(C)C)C(=O)N[C@@H](C)C(=O)N[C@@H](C(C)C)C(=O)N2CCC[C@H]2C(=O)N2CCC[C@@H]2C(=O)N[C@@H](Cc2c[nH]c3ccccc23)C(=O)N[C@@H](CCCCN)C(=O)N1)C(N)=O | 28.5 | 7 | 57.3 | 36 | –
5 | CC(C)[C@@H]1NC(=O)CNC(=O)[C@@H]2CSSC[C@H](NC(=O)[C@H](C(C)C)NC(=O)[C@H](CC(=O)O)NC1=O)C(=O)N[C@@H](C)C(=O)N[C@@H](C(C)C)C(=O)N[C@@H]([C@@H](C)O)C(=O)N1CCC[C@H]1C(=O)N1CCC[C@@H]1C(=O)N[C@@H](C(C)C)C(=O)N[C@@H](Cc1c[nH]c3ccccc13)C(=O)N[C@@H](CCCCN)C(=O)N2 | 44.6 | – | – | – | –
6 | H-PGPVYVWKQGVDVKAVTSN-OH | – | – | – | – | inhibition [15]: inactive; inhibition [16]: inactive
7 | CC(C)[C@@H]1NC(=O)CNC(=O)[C@H](CCC(N)=O)NC(=O)[C@H](CCCCN)NC(=O)[C@H](Cc2c[nH]c3ccccc23)NC(=O)[C@H](C(C)C)NC(=O)[C@H]2CCCN2C(=O)[C@@H]2CCCN2C(=O)[C@H]([C@@H](C)O)NC(=O)[C@H](C(C)C)NC(=O)[C@H](C)NC(=O)[C@H](CCCCN)NC(=O)[C@H](C(C)C)NC(=O)[C@H](CC(=O)O)NC1=O | 8.9 | – | – | – | –
8 | CC(=O)N[C@@H](CO)C(=O)N[C@@H](Cc1cnc[nH]1)C(=O)N[C@@H](CC(C)C)C(=O)N[C@@H](CCC(=O)O)C(=O)N[C@H](C(=O)N[C@@H](CC(N)=O)C(=O)N1CCC[C@H]1C(=O)N1CCC[C@@H]1C(=O)N[C@@H](CCC(=O)O)C(=O)N[C@H](C(=O)N[C@@H](CO)C(=O)N[C@@H](CCCCN)C(=O)N[C@H](C(=O)N[C@@H](C)C(=O)O)C(C)C)C(C)C)C(C)C | 42.1 | – | – | – | –
9 | CC(C)[C@H](NC(=O)CNC(=O)[C@H](CCC(N)=O)NC(=O)[C@H](CCCCN)NC(=O)[C@H](Cc1c[nH]c2ccccc12)NC(=O)[C@H]1CCCN1C(=O)[C@@H]1CCCN1C(=O)[C@@H](NC(=O)[C@H](C)NC(=O)[C@H](CCCCN)NC(=O)[C@@H](NC(=O)[C@@H](N)CC(=O)O)C(C)C)C(C)C)C(=O)O | – | 5.6 | 59.7 | 58.8 | Activity [2]: 111%; Activity [8]: 99.7%
10 | CC(C)[C@@H]1NC(=O)CNC(=O)[C@H](CCC(N)=O)NC(=O)[C@H](CCCCN)NC(=O)[C@H](Cc2c[nH]c3ccccc23)NC(=O)[C@H](C(C)C)NC(=O)[C@H](Cc2ccc(O)cc2)NC(=O)[C@H](C(C)C)NC(=O)[C@@H]2CCCN2C(=O)CNC(=O)[C@@H]2CCCN2C(=O)[C@H](CC(N)=O)NC(=O)[C@H](CO)NC(=O)[C@H]([C@@H](C)O)NC(=O)[C@H](C(C)C)NC(=O)[C@H](C)NC(=O)[C@H](CCCCN)NC(=O)[C@H](C(C)C)NC(=O)[C@H](CC(=O)O)NC1=O (cyclo(AVTSNPGPVYVWKQGVDVK)) | 40.5 | – | – | – | inhibition [15]: Active; inhibition [16]: Active

Reference: ChEMBL document CHEMBL2021914, “Inhibition of platelet adhesion by peptidomimetics mimicking the interactive β-hairpin of glycoprotein Ibα” (Bioorg Med Chem Lett, 2012)
